Results as given in PubChem BioAssay AID1645864 (Buhrlage Lab, Dana-Farber Cancer Institute and Novartis …, 2021).
Activity calls are given as the source filed them.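 The calls were made as follows: active = maximal inhibition of USP17 at or above 30% in the confirmation dose-response, a value not among the printed readouts; inactive = the rest.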

The molecules below were run against Ubiquitin carboxyl-terminal hydrolase 17-like protein 5 (Homo sapiens) (UniProt A8MUK1) (assay: ubiquitin-specific protease 17 inhibitors, concentration series, biochemical, verification of primary actives (AID 1645864)). Settings: purified USP17, ubiquitin-rhodamine cleavage fluorescence, 3 h.
Chain of Ubiquitin carboxyl-terminal hydrolase 17-like protein 5 (Homo sapiens) (A8MUK1 whole entry, looked up): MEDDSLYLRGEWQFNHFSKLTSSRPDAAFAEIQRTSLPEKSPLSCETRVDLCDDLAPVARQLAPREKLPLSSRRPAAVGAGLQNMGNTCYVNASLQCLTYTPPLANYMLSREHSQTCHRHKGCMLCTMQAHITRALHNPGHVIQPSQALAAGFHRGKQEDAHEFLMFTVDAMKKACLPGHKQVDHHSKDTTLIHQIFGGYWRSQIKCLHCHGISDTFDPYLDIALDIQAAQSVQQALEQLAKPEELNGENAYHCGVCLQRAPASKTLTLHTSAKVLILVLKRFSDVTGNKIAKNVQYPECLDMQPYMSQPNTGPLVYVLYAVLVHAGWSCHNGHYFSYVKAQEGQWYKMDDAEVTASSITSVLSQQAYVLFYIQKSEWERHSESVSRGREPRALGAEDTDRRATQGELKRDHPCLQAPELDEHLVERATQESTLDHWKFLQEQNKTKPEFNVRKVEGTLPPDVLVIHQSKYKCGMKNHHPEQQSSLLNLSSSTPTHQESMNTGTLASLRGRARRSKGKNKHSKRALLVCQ
Work on `CCCCCn1c(Sc2ccc(C)cc2)nc2c1c(=O)[nH]c(=O)n2C` yielded an IC50 of 16.3 µM.
In the case of `O=C(NCC1CC1)C1CCCN(c2ccc(-c3ccccc3)nn2)C1` (stereo unspecified), the IC50 is reported as > 50 µM (inactive).
In the case of `Cc1[nH]nc(NC(=O)C2COc3ccccc3O2)c1-c1ccccc1` (stereo unspecified), the IC50 is reported as 34.7 µM.
For `O=C(c1ccc2occc2c1)N1CCC(S(=O)(=O)c2ccc(-c3ccco3)cc2)CC1`, the IC50 was > 50 µM (inactive).
`COc1ccccc1NC(=O)Cn1cc(C(=O)c2ccc(C)cc2)c(=O)c2cc(Cl)ccc21` was tested, and the IC50 was 16.6 µM.
For `CC1=CN2C(=N)/C(=C/c3cn(Cc4ccc(Cl)cc4)c4ccccc34)C(=O)N=C2S1`, the IC50 was > 50 µM (inactive).
Molecule `Nc1c(C(=O)NCc2ccc3c(c2)OCO3)nnn1Cc1ccc(Br)cc1F` has an IC50 of 2.8 µM.
In the case of `O=[N+]([O-])c1ccc2c(c1)nc1n2CCN(Cc2ccco2)C1`, the IC50 is reported as > 50 µM (inactive).
In the case of `CSc1ccc(CNCc2c(C(=O)O)n(Cc3ccccc3)c3cc(C)ccc23)cc1`, the IC50 is reported as > 50 µM (inactive).
`O=c1[nH]c2ccc(S(=O)(=O)Nc3ccc(O)c4ccccc34)cc2[nH]1` gave an IC50 of 4.09 µM.
For `O=S(=O)(c1ccc2c(c1)OCCO2)N(Cc1ccccc1)Cc1nnc(-c2ccccc2)o1`, the IC50 was > 50 µM (inactive).
With `CC1CCCCN1c1nc(F)c2c(c1F)S(=O)(=O)CCN2Cc1ccccc1` (stereo unspecified) the IC50 was > 50 µM (inactive).
`Cc1ccc2cc(CCNC(=O)c3cccc(Br)c3)c(=O)[nH]c2c1` showed an IC50 of 38.9 µM.
`COc1ccccc1OCC(=O)Nc1ccc2c(c1)CCC(=O)N2Cc1ccccc1` was tested, and the IC50 was > 50 µM (inactive).
`O=C(Cc1cccc2ccccc12)Nc1nc2ccc(F)cc2s1` was tested, and the IC50 was > 50 µM (inactive).
`COc1ccc(CCNc2c(-c3ccccc3O)nc3cnccn23)cc1OC` was tested, and the IC50 was > 50 µM (inactive).
With `Fc1ccccc1Cc1nc(-c2ccc3nncn3c2)no1` the IC50 was > 50 µM (inactive).
For `O=C(c1cscn1)N1CCC2(CC1)CC1(CO2)Nc2ccccc2-n2cccc21` (stereo unspecified), the IC50 was > 50 µM (inactive).
`CC(C)(C)c1ccc(Cn2nnc3c(=O)[nH]c(C4CCN(S(=O)(=O)c5ccc(S(=O)(=O)NC6CC6)cc5)CC4)nc32)cc1` showed an IC50 of 39.3 µM.
Molecule `O=C(CCCn1c(=O)[nH]c2cc(Cl)ccc2c1=O)N1CCc2ccccc2C1` has an IC50 of 21.5 µM.
For `CC1CCc2c(sc3ncnc(NC4CCN(CC(N)=O)CC4)c23)C1` (stereo unspecified), the IC50 was > 50 µM (inactive).
`O=C1C=C(O)c2c(O)cccc2C1=O` gave an IC50 of 11.9 µM.
In the case of `O=C(c1ccco1)N1CCN=C1SCc1ccccc1F`, the IC50 is reported as > 50 µM (inactive).
For `COc1cc2c(oc(=O)c3cc(C)cc(OC)c32)c2c([C@@H]3OC(C)[C@@H](O)[C@@](C)(O)C3O)ccc(O)c12` (stereo partly specified), the IC50 was 24.4 µM.
With `COc1ccccc1NS(=O)(=O)c1ccc2oc(SCC(=O)c3ccccc3)nc2c1` the IC50 was > 50 µM (inactive).
`O=C(/C=C/c1ccc(F)cc1)N1CCc2ccccc2C1` gave an IC50 of 37.3 µM.
In the case of `Cc1nn(-c2ccccc2)c(C)c1C(=O)OCC(=O)Nc1cccc(C#N)c1`, the IC50 is reported as > 50 µM (inactive).
Work on `O=C(Nc1ccccc1)c1nc(-c2cn(Cc3ccc(F)cc3)nn2)no1` yielded an IC50 of 42.4 µM.
For `COc1cccc(-c2nc(C(N)=O)c3[nH]c(=O)n(-c4cccc(Cl)c4)c3n2)c1OC`, the IC50 was > 50 µM (inactive).
With `O=C1C(O)=C(c2ccc(O)cc2)C(=O)C(O)=C1c1ccccc1` the IC50 was 6.1 µM.
`O=C(O)c1ccccc1C(=O)Nc1ccc(SC(C(=O)Nc2ccccc2)c2ccccc2)cc1` (stereo unspecified) was tested, and the IC50 was > 50 µM (inactive).
Work on `Cc1ccc(Cn2cc(-c3noc(-c4ccc[nH]4)n3)nn2)cc1` yielded an IC50 of 21.2 µM.
`COc1ccc(NC(=O)COc2cc(CSc3ccccc3)ncc2OC)cc1` showed an IC50 of 43.7 µM.
Work on `O=C(Nc1ccccc1)c1ccc2c(c1)CC(c1ccccc1)OC2=O` (stereo unspecified) yielded an IC50 of 16 µM.
Molecule `COc1ccc(-c2cc3nc([C@H](C)NC(=O)Cc4ccccc4C)nn3cn2)cc1` has an IC50 of 2.38 µM.
Work on `COc1ccc(OC)c(NC(=O)C2=C(C)Nc3ncnn3C2c2ccccc2OCc2ccc(C)cc2)c1` (stereo unspecified) yielded an IC50 of 12.2 µM.
In the case of `CC(=O)c1ccc(NC(=O)/C(=C/c2ccco2)n2nnnc2-c2ccccc2)cc1`, the IC50 is reported as > 50 µM (inactive).
`CN1C(=O)[C@]23CC4=CC=C[C@H](O)[C@H]4N2C(=O)[C@@]1(CO)SS3` was tested, and the IC50 was > 50 µM (inactive).
Molecule `O=C(NCc1ccccc1)c1ccc2c(=O)n(-c3ccccc3)c(=O)[nH]c2c1` has an IC50 of 21.8 µM.
In the case of `O=c1c2cnc(N3CCOCC3)nc2ccn1CCc1ccccc1`, the IC50 is reported as 18 µM.
For `O=C(Nc1ccc(F)cc1F)c1csc(-c2ccccc2)n1`, the IC50 was 39.2 µM.
Molecule `Cc1ccc2c(c1)c(=O)c(C(=O)c1ccccc1)cn2CC(=O)Nc1ccccc1` has an IC50 of 9.87 µM.
With `O=C1CC(C(=O)Nc2ccccc2Cl)n2nc(-c3ccccc3)cc2N1` (stereo unspecified) the IC50 was 28.7 µM.
`O=C(Nc1cccc(C(F)(F)F)c1)N1CCCn2c(nc3ccccc32)C1` was tested, and the IC50 was 25 µM.
`Cn1c(-c2nnc(SCC(=O)NCCc3ccccc3)o2)cc2ccccc21` gave an IC50 of 8.23 µM.
For `COc1cccc(-n2cnc3cc(C(=O)NC4CC4)ccc3c2=O)c1`, the IC50 was 15 µM.
